Laboratory results as given in ChEMBL document CHEMBL1201862, “PubChem BioAssay data set” (2004).
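Each compound was tested at five concentrations against cells in 96-well plates for 48 hours. At the GI50, growth is halved.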 The source made the active and inactive calls. Rule as the data show it: active = GI50 up to about 1.1 µM and inactive = higher.

How the values were obtained:
Assay in all cases: DTP human tumour cell line panel, 48 h
HCT-15 = system: HCT-15
786-0 = system: 786-0
NCI-H23 = system: NCI-H23
M14 = system: M14
SK-MEL-2 = system: SK-MEL-2
HL-60 = system: HL-60
SF-268 = system: SF-268
SF-539 = system: SF-539
HCC 2998 = system: HCC 2998
NCI-H522 = system: NCI-H522
SK-MEL-28 = system: SK-MEL-28
TK-10 = system: TK-10
ACHN = system: ACHN
LOX IMVI = system: LOX IMVI
UACC-257 = system: UACC-257
SNB-19 = system: SNB-19
SR = system: SR

CC1=NN(C(=O)c2ccc(Cl)cc2)C(=O)/C1=C/c1cccc(O)c1
GI50 (HCT-15): > 100 µM
GI50 (786-0): > 100 µM (inactive)
GI50 (NCI-H23): > 100 µM (inactive)
GI50 (M14): > 100 µM (inactive)
GI50 (SK-MEL-2): > 100 µM (inactive)
GI50 (HL-60): > 100 µM (inactive)
GI50 (SF-268): > 100 µM (inactive)
GI50 (SF-539): > 100 µM (inactive)
GI50 (HCC 2998): > 100 µM (inactive)
GI50 (NCI-H522): > 100 µM (inactive)
GI50 (SK-MEL-28): > 100 µM (inactive)
GI50 (TK-10): > 100 µM (inactive)
GI50 (ACHN): > 100 µM (inactive)
GI50 (LOX IMVI): > 100 µM (inactive)
GI50 (UACC-257): > 100 µM (inactive)
GI50 (SNB-19): > 100 µM (inactive)

O=C1C(Cl)=C(Cl)C(=O)N1c1ccc(Cl)c(Cl)c1Cl
GI50 (HCT-15): 31.1 µM
GI50 (786-0): 44.5 µM (inactive)
GI50 (NCI-H23): 61.8 µM (inactive)
GI50 (M14): 52.7 µM (inactive)
GI50 (SK-MEL-2): > 100 µM (inactive)
GI50 (HL-60): 24.3 µM (inactive)
GI50 (SF-268): 38 µM (inactive)
GI50 (SF-539): > 100 µM (inactive)
GI50 (HCC 2998): > 100 µM (inactive)
GI50 (NCI-H522): 14.4 µM (inactive)
GI50 (SK-MEL-28): > 100 µM (inactive)
GI50 (TK-10): > 100 µM (inactive)
GI50 (ACHN): 75 µM (inactive)
GI50 (LOX IMVI): 69 µM (inactive)
GI50 (UACC-257): > 100 µM (inactive)
GI50 (SNB-19): 57.8 µM (inactive)
GI50 (SR): 26.9 µM (inactive)

CSc1ccc2c(cc1=O)[C@@H](NC(=O)c1cc(O)c(O)c(O)c1)CCc1cc(O)c(O)c(O)c1-2
GI50 (HCT-15): 20.2 µM
GI50 (786-0): 34.6 µM (inactive)
GI50 (NCI-H23): 20 µM (inactive)
GI50 (M14): 19.6 µM (inactive)
GI50 (HL-60): 16.8 µM (inactive)
GI50 (SF-268): 37.4 µM (inactive)
GI50 (SF-539): 24.7 µM (inactive)
GI50 (HCC 2998): > 100 µM (inactive)
GI50 (NCI-H522): 21.4 µM (inactive)
GI50 (SK-MEL-28): 32.3 µM (inactive)
GI50 (TK-10): 41.6 µM (inactive)
GI50 (ACHN): 34.1 µM (inactive)
GI50 (UACC-257): 18 µM (inactive)
GI50 (SNB-19): 81.3 µM (inactive)
GI50 (SR): 18.6 µM (inactive)

CC(=O)NC(CCCNC(=O)OCc1ccccc1)C(=O)NCc1ccccc1 (stereo not drawn)
GI50 (HCT-15): > 100 µM
GI50 (786-0): > 100 µM (inactive)
GI50 (NCI-H23): > 100 µM (inactive)
GI50 (M14): > 100 µM (inactive)
GI50 (SK-MEL-2): > 100 µM (inactive)
GI50 (SF-268): > 100 µM (inactive)
GI50 (SF-539): > 100 µM (inactive)
GI50 (HCC 2998): > 100 µM (inactive)
GI50 (NCI-H522): > 100 µM (inactive)
GI50 (SK-MEL-28): > 100 µM (inactive)
GI50 (TK-10): > 100 µM (inactive)
GI50 (ACHN): > 100 µM (inactive)
GI50 (LOX IMVI): > 100 µM (inactive)
GI50 (UACC-257): > 100 µM (inactive)
GI50 (SNB-19): > 100 µM (inactive)

CCCCCCc1cc2c(C)c(C)c(=O)oc2cc1OCCCOc1cc2oc(=O)c(C)c(C)c2cc1CCCCCC
GI50 (HCT-15): > 100 µM
GI50 (786-0): > 100 µM (inactive)
GI50 (NCI-H23): > 100 µM (inactive)
GI50 (M14): > 100 µM (inactive)
GI50 (SK-MEL-2): > 100 µM (inactive)
GI50 (HL-60): > 100 µM (inactive)
GI50 (SF-268): > 100 µM (inactive)
GI50 (SF-539): > 100 µM (inactive)
GI50 (NCI-H522): > 100 µM (inactive)
GI50 (SK-MEL-28): > 100 µM (inactive)
GI50 (TK-10): > 100 µM (inactive)
GI50 (LOX IMVI): > 100 µM (inactive)
GI50 (UACC-257): > 100 µM (inactive)
GI50 (SNB-19): > 100 µM (inactive)
GI50 (SR): > 100 µM (inactive)

CC1(C)CCC(=O)c2c(O)ccc(O)c21
GI50 (HCT-15): 83.9 µM
GI50 (786-0): > 100 µM (inactive)
GI50 (NCI-H23): > 100 µM (inactive)
GI50 (SK-MEL-2): 86.5 µM (inactive)
GI50 (SF-268): > 100 µM (inactive)
GI50 (SF-539): 77.4 µM (inactive)
GI50 (HCC 2998): > 100 µM (inactive)
GI50 (NCI-H522): 55.8 µM (inactive)
GI50 (SK-MEL-28): 39.8 µM (inactive)
GI50 (TK-10): > 100 µM (inactive)
GI50 (UACC-257): 25.1 µM (inactive)
GI50 (SNB-19): > 100 µM (inactive)
GI50 (SR): > 10 µM (inactive)

O=Cc1c[nH]c2c(=O)[nH]cnc12
GI50 (HCT-15): > 100 µM
GI50 (786-0): > 100 µM (inactive)
GI50 (NCI-H23): > 100 µM (inactive)
GI50 (M14): > 100 µM (inactive)
GI50 (SK-MEL-2): > 100 µM (inactive)
GI50 (HL-60): > 100 µM (inactive)
GI50 (SF-268): > 100 µM (inactive)
GI50 (HCC 2998): > 100 µM (inactive)
GI50 (NCI-H522): > 100 µM (inactive)
GI50 (SK-MEL-28): > 100 µM (inactive)
GI50 (TK-10): > 100 µM (inactive)
GI50 (ACHN): > 100 µM (inactive)
GI50 (LOX IMVI): > 100 µM (inactive)
GI50 (UACC-257): > 100 µM (inactive)
GI50 (SNB-19): > 100 µM (inactive)
GI50 (SR): > 100 µM (inactive)

CNC(=O)N(CCCC(NC(C)=O)C(=O)NCc1ccccc1)Cc1ccccc1 (stereo not drawn)
GI50 (HCT-15): > 100 µM
GI50 (786-0): > 100 µM (inactive)
GI50 (NCI-H23): > 100 µM (inactive)
GI50 (M14): > 100 µM (inactive)
GI50 (SK-MEL-2): > 100 µM (inactive)
GI50 (SF-268): > 100 µM (inactive)
GI50 (SF-539): > 100 µM (inactive)
GI50 (HCC 2998): > 100 µM (inactive)
GI50 (NCI-H522): > 100 µM (inactive)
GI50 (SK-MEL-28): > 100 µM (inactive)
GI50 (TK-10): > 100 µM (inactive)
GI50 (ACHN): > 100 µM (inactive)
GI50 (LOX IMVI): > 100 µM (inactive)
GI50 (UACC-257): > 100 µM (inactive)
GI50 (SNB-19): > 100 µM (inactive)

S=c1c2ccccc2c(=S)n2n1CC=CC2
GI50 (HCT-15): > 100 µM
GI50 (786-0): > 100 µM (inactive)
GI50 (NCI-H23): > 100 µM (inactive)
GI50 (M14): > 100 µM (inactive)
GI50 (SK-MEL-2): > 100 µM (inactive)
GI50 (HL-60): > 100 µM (inactive)
GI50 (SF-268): > 100 µM (inactive)
GI50 (SF-539): > 100 µM (inactive)
GI50 (HCC 2998): > 100 µM (inactive)
GI50 (NCI-H522): 75.7 µM (inactive)
GI50 (SK-MEL-28): > 100 µM (inactive)
GI50 (TK-10): > 100 µM (inactive)
GI50 (ACHN): > 100 µM (inactive)
GI50 (LOX IMVI): > 100 µM (inactive)
GI50 (UACC-257): > 100 µM (inactive)
GI50 (SNB-19): > 100 µM (inactive)
